Source: patent US7410955B2, “Therapeutic use of agonist ligands specific to G2A receptor” (Biosynergen, Inc., priority 2002, dated 2008)

Experiments:
CLP-induced Sepsis model = test: CLP-induced sepsis model; assay type: in vivo, ICR mice; details: 10 mg/kg intraperitoneal, same methods as Example 6-2 (four times at 12 hour intervals, 2 hours after CLP)
Method: After ICR mice (25-30 g in body weight; MJ Ltd.) had been anesthetized with pentobarbital, right abdominal sites of the mice were dissected in a length of 1 cm to expose their cecum, and sites below the ileocecal valve were ligated. And then, after 4˜6 punctures had been created on the cecum with 21-gauge needle, the abdomen was sutured again to cause peritonitis, thereby inducing Sepsis.
After the peritoneal cavity of mice had been exposed, it was washed with sterilized saline (2 ml). The resultant solution was diluted with HBSS (Sigma Chemical Co., USA) in a ratio of 1/1000, and then 10 μl of each diluted solution was spread on Trypticase Soy agar (BBL, Becton Dickinson Co., USA) plates. After overnight incubation at 37° C., colony forming unit (CFU) was measured.
7 mice were administered with 1-stearoyl LPC (Sigma Chemical Co., USA) dissolved in 1% BSA solution containing no fatty acid in an amount of 10 mg/kg by subcutaneous injection 2 and 14 hours after the CLP surgery, respectively (experimental group). The remaining 7 mice were administered with 1% BSA solution containing no fatty acid of the same amount as above in the same manner (control group). The numbers of intraperitoneal E. coli cells in the ICR mice of experimental and control groups were measured in accordance with Reference Example 3, 24 hours after the CLP surgery.
Each 10 ICR mice were intraperitoneally administered with 1-stearoyl LPC (Sigma Chemical Co., USA) dissolved in 1% BSA solution containing no fatty acid in amounts of 5, 10, and 20 mg/kg, respectively, four times at intervals of 12 hours, 2 hours after the CLP surgery (experimental group-1, -2 and -3). The remaining 10 ICR mice were administered only with 1% BSA solution containing no fatty acid (control group). And then, the survival rates of mice in experimental- and control groups were investigated over the lapse of time.
10 mice for the experimental group were intraperitoneally administered with 1-stearoyl LPC (Sigma Chemical Co., USA) dissolved in 1% BSA solution containing no fatty acid in an amount of 10 mg/kg, four times at intervals of 12 hours, 10 hours after the CLP surgery. The remaining 10 mice for the control group were administered only with 1% BSA solution containing no fatty acid. Thereafter, the survival rates of ICR mice in experimental- and control groups were investigated over the lapse of time.
CLP-induced Sepsis model mice were subcutaneously injected with SPC, instead of 1-stearoyl LPC, in dosages of 3 mg/kg and 30 mg/kg four times at intervals of 12 hours, 2 hours after the CLP surgery, respectively. The survival rates of mice were investigated.

G2A = target: T1, G2A (Homo sapiens, UniProt Q9UNW8); details: reported by Kabarowski et al., Science 2001; cited from earlier work
T1 sequence (Q9UNW8 1-380): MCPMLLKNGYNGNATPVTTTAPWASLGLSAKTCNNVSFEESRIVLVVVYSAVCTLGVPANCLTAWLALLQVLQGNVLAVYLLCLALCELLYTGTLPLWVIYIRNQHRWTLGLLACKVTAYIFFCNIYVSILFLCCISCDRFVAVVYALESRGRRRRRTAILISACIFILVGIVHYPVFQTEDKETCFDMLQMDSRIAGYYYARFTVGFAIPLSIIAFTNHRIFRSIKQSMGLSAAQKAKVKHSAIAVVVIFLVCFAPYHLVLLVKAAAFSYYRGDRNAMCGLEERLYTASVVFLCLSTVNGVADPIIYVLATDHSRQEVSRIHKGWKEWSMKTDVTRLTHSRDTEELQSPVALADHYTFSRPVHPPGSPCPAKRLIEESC

neutrophils = test: Inhibition of anti-apoptosis of neutrophils by inflammation mediators (AcOr/EtBr staining); assay type: cell-based, human; details: 15 μM and 30 μM, 1 hour before 1 μg/ml LPS, read after 24 hours
Description: Neutrophils were isolated from healthy adults using discontinuous percoll gradient according to the method of Szucs, S. et al. (J. Immunol. Methods, 167: 245-251, 1994). First, plasmas were separated from heparinized whole blood, and red blood cells were depleted by dextran sedimentation. Thereafter, leukocytes were layered over a percoll gradient with densities of 1.077 and 1.094 (Pharmacia, Sweden). Separated neutrophil layers were recovered from the percoll gradient interface, and then washed with HBSS (Hank's balanced salt solution, Sigma Chemical Co., USA). The remaining pellet was resuspended in RPMI 1640 medium supplemented with 10% FBS (fetal bovine serum) and 2 mM gentamicin. As a result of the examination of the cytospin stained with Wright-Giemsa (Sigma Chemical Co., USA), it was observed that the resuspension solution contained 95% or more neutrophils. Also, as a result of examination using trypan blue dye exclusion method, 98% or more neutrophils were observed.
1×10^5 neutrophil cells isolated in above Example <1-1> were cultured in a 96-well plate to which RPMI1640 medium containing 10% FBS was added. Thereafter, they were treated with 1-stearoyl lysophosphatidylcoline (Sigma Chemical Co., USA) in concentrations of 15 μM and 30 μM, respectively. After 1 hour, they were treated with 1 μg/ml LPS (Sigma Chemical Co.). After 24 hours, the medium was removed from the plats, and the remaining cells were washed twice with PBS (phosphate-buffered saline) buffer at 4° C. The cells adhered to the bottom of the plate were all scraped and put into a 1.5-ml eppendorf tube. Then, they were centrifuged at 2500 rpm for 5 min, and the supernatant was removed. Again, 0.1 ml of PBS buffer at 4° C. was added to the pellet, which was then well mixed using pipetting. To 25 μl of the cell suspension was added 2 μl of AcOr/EtBr dye solution in which 100 μg/ml of acridine orange (AcOr) and 100 μg/ml of ethidium bromide (EtBr) were mixed. Then, the percentage of apoptotic cells/total cells was calculated with observing the neutrophil cells under a fluorescence microscope. […]

CCCCCCCC/C=C\CCCCCCCC(=O)OCC(O)COP(=O)([O-])OCC[N+](C)(C)C (centres unmarked) [1-oleoyl LPC, 1-oleoyl (18:1) lysophosphatidylcholine]
therapeutic effect against Sepsis (survival) (CLP-induced Sepsis model): excellent therapeutic effect

CCCCCCCCCCCCC/C=C/[C@@H](O)[C@@H](N)COP(=O)([O-])OCC[N+](C)(C)C [SPC, sphingosylphosphorylcholine]
affinity of G2A to the ligand (G2A): low affinity
percentage of neutrophil apoptosis (apoptotic cells/total cells) that had been decreased by LPS (neutrophils): increased by SPC in a concentration-dependent manner

lysophosphatidylcholine
affinity of G2A to the ligand (G2A): high affinity

CCCCCCCCCCCCCC(=O)OC[C@@H](O)COP(=O)([O-])OCC[N+](C)(C)C [1-myristoyl LPC, 1-myristoyl (14:0) lysophospatidylcholine]
therapeutic effect against Sepsis (survival) (CLP-induced Sepsis model): excellent therapeutic effect
